Measurements reported in US7923561B2 (Hoffmann-La Roche Inc., priority 2006, dated 2011).

Target: T1, recombinant human 5-HT5A receptor (Homo sapiens, UniProt P47898)
T1 construct: expressed in transfected cells; host or cells: HEK-EBNA (Human Embryonic Kidney-EBNA) cells, transient cDNA expression, membranes
Experiment: [3H]LSD radioligand binding assay, membranes of HEK-EBNA cells transiently expressing 5-HT5A receptors
Details: [3H]LSD approx. 1 nM, SPA beads, 120 min at room temperature; Ki from IC50 by Cheng-Prussoff equation
Procedure: A [^3H]LSD radioligand binding assay was used to determine the affinity of the compounds for the recombinant human 5-HT5A receptor, in membranes from transiently (cDNA) expressed 5-HT5A receptors in Human Embryonic Kidney-EBNA (HEK-EBNA) cells. Assay buffer consisted of Tris (50 mM) buffer containing 1 mM EGTA, 10 mM MgCl2 (pH 7.4) and 10 μM pargyline. The binding assay was carried out in 96-well-plates in the presence of [^3H]LSD (approximately 1 nM), approximately 2 μg/well of membrane protein, and 0.5 mg of Ysi-poly-1-lysine SPA beads in a final volume of 200 μl of buffer. Non-specific binding was defined using methiothepin 2 μM. Compounds were tested at 10 concentrations. All assays were conducted in duplicate and repeated at least two times. Assay plates were incubated for 120 min at room temperature before centrifugation. Bound ligand was determined using a Packard Topcount scintillation counter. IC50 values were calculated using a non-linear curve fitting program and Ki values calculated using the Cheng-Prussoff equation.

T1 sequence (P47898 whole entry): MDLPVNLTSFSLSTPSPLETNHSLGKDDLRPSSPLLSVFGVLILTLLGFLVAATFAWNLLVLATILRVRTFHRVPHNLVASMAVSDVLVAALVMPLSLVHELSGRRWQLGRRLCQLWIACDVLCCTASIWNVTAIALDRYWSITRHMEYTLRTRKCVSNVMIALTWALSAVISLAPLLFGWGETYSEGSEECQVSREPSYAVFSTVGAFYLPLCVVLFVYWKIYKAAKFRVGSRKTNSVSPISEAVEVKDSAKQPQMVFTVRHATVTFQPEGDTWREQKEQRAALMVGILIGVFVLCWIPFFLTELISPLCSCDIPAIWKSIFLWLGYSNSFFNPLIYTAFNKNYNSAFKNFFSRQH

| Molecule | Ki |
| --- | --- |
| c1cncc(CNc2cccc3nc(N[C@@H]4CCc5ccccc54)ccc23)c1 [Example 12, N2-(R)-Indan-1-yl-N5-pyridin-3-ylmethyl-quinoline-2,5-diamine] | 5.13 nM |
| c1cncc(CNc2cccc3nc(NC4COc5ccccc54)ccc23)c1 (racemic) [Example 18, rac-N2-(2,3-Dihydro-benzofuran-3-yl)-N5-pyridin-3-ylmethyl-quinoline-2,5-diamine] | 22.1 nM |
| c1cncc(CNc2cccc3nc(NC4COc5ccccc54)ccc23)c1 (single isomer, unassigned; (+)) [Example 27, (+)-N2-2,3-Dihydro-benzofuran-3-yl-N5-pyridin-3-ylmethyl-quinoline-2,5-diamine] | 25.8 nM |
| COc1cccc2c1C(Nc1ccc3c(NCc4cccc5[nH]ccc45)cccc3n1)CC2 (racemic) [Example 57, rac-N5-(1H-Indol-4-ylmethyl)-N2-(7-methoxy-indan-1-yl)-quinoline-2,5-diamine] | 3.7 nM |
| c1ccc2c(c1)CC[C@H]2Nc1ccc2c(NCc3cc[nH]n3)cccc2n1 [Example 50, N2-(R)-Indan-1-yl-N5-(1H-pyrazol-3-ylmethyl)-quinoline-2,5-diamine] | 13.6 nM |
| (4-Chloro-phenyl)-[2-((R)-indan-1-ylamino)-quinolin-5-yl]-methanone [Example 90] | 49.7 nM |
| O=S(=O)(Nc1cccc2nc(N[C@@H]3CCc4ccccc43)ccc12)c1ccc(Cl)s1 [Example 5, 5-Chloro-thiophene-2-sulfonic acid [2-((R)-indan-1-ylamino)-quinolin-5-yl]-amide] | 3.62 nM |
| O=S(=O)(Nc1cccc2nc(N[C@@H]3CCc4ccccc43)ccc12)c1cc(F)c(F)c(F)c1 [Example 16, 3,4,5-Trifluoro-N-[2-((R)-indan-1-ylamino)-quinolin-5-yl]-benzenesulfonamide] | 11.1 nM |
| O=C(Nc1cccc2nc(N[C@@H]3CCc4ccccc43)ccc12)c1ccc(F)cc1 [Example 78, 4-Fluoro-N-[2-((R)-indan-1-ylamino)-quinolin-5-yl]-benzamide] | 91.6 nM |
| COc1ccc(C(=O)c2cccc3nc(N[C@@H]4CCc5ccccc54)ccc23)cc1 [Example 93, [2-((R)-Indan-1-ylamino)-(4-methoxy-phenyl)-quinolin-5-yl]-methanone] | 15.8 nM |
| COc1cccc2c1C(Nc1ccc3c(NS(=O)(=O)c4cc(F)cc(F)c4)cccc3n1)CC2 (stereo not shown) [Example 39, 3,5-Difluoro-N-[2-(7-methoxy-indan-1-ylamino)-quinolin-5-yl]-benzenesulfonamide] | 4.57 nM |
| O=S(=O)(Nc1cccc2nc(N[C@@H]3CCc4ccccc43)ccc12)c1ccc(F)cc1 [Example 1, 4-Fluoro-N-[2-((R)-indan-1-ylamino)-quinolin-5-yl]-benzenesulfonamide] | 3.76 nM |
| Clc1ccc(Nc2cccc3nc(N[C@@H]4CCc5ccccc54)ccc23)cc1 [Example 7, N5-(4-Chloro-phenyl)-N2-(R)-indan-1-yl-quinoline-2,5-diamine] | 2.84 nM |
| COc1ccc2c(c1)C(Nc1ccc3c(NCc4cccnc4)cccc3n1)CC2 (single isomer, unassigned; (+)) [Example 37, (+)-N2-(6-Methoxy-indan-1-yl)-N5-pyridin-3-ylmethyl-quinoline-2,5-diamine] | 17.8 nM |
| O=C(c1ccccc1)c1cccc2nc(N[C@@H]3CCc4ccccc43)ccc12 [Example 85, [2-((R)-Indan-1-ylamino)-quinolin-5-yl]-phenyl-methanone] | 24.1 nM |
| COc1ccc2c(c1)C(Nc1ccc3c(NCc4cc(F)cc(F)c4)cccc3n1)CC2 (racemic) [Example 29, rac-N5-(3,5-Difluoro-benzyl)-N2-(6-methoxy-indan-1-yl)-quinoline-2,5-diamine] | 9.72 nM |
| Cn1cc(CNc2cccc3nc(N[C@@H]4CCc5ccccc54)ccc23)cn1 [Example 55, N2-(R)-Indan-1-yl-N5-(1-methyl-1H-pyrazol-4-ylmethyl)-quinoline-2,5-diamine] | 25.6 nM |
| O=C(c1cc(F)cc(F)c1)c1cccc2nc(N[C@@H]3CCc4ccccc43)ccc12 [Example 100, (3,5-Difluoro-phenyl)-[2-((R)-indan-1-ylamino)-quinolin-5-yl]-methanone] | 264 nM |
| COc1cccc2c1C(Nc1ccc3c(NS(=O)(=O)c4cc(F)c(F)c(F)c4)cccc3n1)CC2 (racemic) [Example 19, rac-3,4,5-Trifluoro-N-[2-(7-methoxy-indan-1-ylamino)-quinolin-5-yl]-benzenesulfonamide] | 7.18 nM |
| COc1ccc2c(c1)C(Nc1ccc3c(NCc4cccc(S(C)(=O)=O)c4)cccc3n1)CC2 (single isomer, unassigned; (+)) [Example 30, (+)-N5-(3-Methanesulfonyl-benzyl)-N2-(6-methoxy-indan-1-yl)-quinoline-2,5-diamine] | 19 nM |

| Molecule | Ki |
| --- | --- |
| O=C(Nc1cccc2nc(N[C@@H]3CCc4ccccc43)ccc12)c1cc(F)cc(F)c1 [Example 45, 3,5-Difluoro-N-[2-((R)-indan-1-ylamino)-quinolin-5-yl]-benzamide] | 97.7 nM |
| Cc1ccccc1-c1cccc2nc(N[C@@H]3CCc4ccccc43)ccc12 [Example 65, (R)-Indan-1-yl-(5-o-tolyl-quinolin-2-yl)-amine] | 173 nM |
| Fc1cc(F)cc(CNc2cccc3nc(NC4Cc5ccccc5C4)ccc23)c1 [Example 87, N5-(3,5-Difluoro-benzyl)-N2-indan-2-yl-quinoline-2,5-diamine] | 56.2 nM |
| Fc1cc(F)cc(CNc2cccc3nc(NC4COc5ccccc54)ccc23)c1 (racemic) [Example 17, rac-N5-(3,5-Difluoro-benzyl)-N2-(2,3-dihydro-benzofuran-3-yl)-quinoline-2,5-diamine] | 9.24 nM |
| c1ccc2c(c1)CC[C@H]2Nc1ccc2c(Nc3cccc4[nH]ccc34)cccc2n1 [Example 71, N2-(R)-Indan-1-yl-N5-(1H-indol-4-yl)-quinoline-2,5-diamine] | 2.94 nM |
| COc1cccc2c1C(Nc1ccc3c(NCc4c[nH]nn4)cccc3n1)CCC2 (racemic) [Example 68, Rac-N2-(8-Methoxy-1,2,3,4-tetrahydro-naphthalen-1-yl)-N5-(1H-[1,2,3]triazol-4-ylmethyl)-quinoline-2,5-diamine] | 15.3 nM |
| COc1cccc2c1C(Nc1ccc3c(NS(=O)(=O)c4cc(F)cc(F)c4)cccc3n1)CCC2 (racemic) [Example 59, rac 3,5-Difluoro-N-[2-(8-methoxy-1,2,3,4-tetrahydro-naphthalen-1-ylamino)-quinolin-5-yl]-benzenesulfonamide] | 13.4 nM |
| Cc1nc(CNc2cccc3nc(N[C@@H]4CCc5ccccc54)ccc23)c[nH]1 [Example 53] | 7.57 nM |
| Cc1ccc(C(=O)c2cccc3nc(N[C@@H]4CCc5ccccc54)ccc23)cc1 [Example 97, [2-((R)-Indan-1-ylamino)-(4-methyl-phenyl)-quinolin-5-yl]-methanone] | 37.4 nM |
| COc1ccc2c(c1)C(Nc1ccc3c(NCc4cccnc4)cccc3n1)CC2 (racemic) [Example 23, rac-N2-(6-Methoxy-indan-1-yl)-N5-pyridin-3-ylmethyl-quinoline-2,5-diamine] | 23.5 nM |
| O=S(=O)(Nc1cccc2nc(NC3CC4CCC3C4)ccc12)c1ccc(F)cc1 (racemic) [Example 60, rac-exo-N-[2-(Bicyclo[2.2.1]hept-2-ylamino)-quinolin-5-yl]-4-fluoro-benzenesulfonamide] | 197 nM |
| Cc1ccc(C(=NO)c2cccc3nc(N[C@@H]4CCc5ccccc54)ccc23)cc1 [Example 99, [2-((R)-Indan-1-ylamino)-(4-methyl-phenyl)-quinolin-5-yl]-methanone oxime] | 1.8 nM |
| Clc1ccccc1-c1cccc2nc(N[C@@H]3CCc4ccccc43)ccc12 [Example 75, [5-(2-Chloro-phenyl)-quinolin-2-yl]-(R)-indan-1-yl-amine] | 127 nM |
| c1ccc2c(c1)CC[C@H]2Nc1ccc2c(NCc3ncc[nH]3)cccc2n1 [Example 49, N5-(1H-Imidazol-2-ylmethyl)-N2-(R)-indan-1-yl-quinoline-2,5-diamine] | 22.5 nM |
| O=S(=O)(Nc1cccc2nc(NC3CCCc4ccccc43)ccc12)c1cc(F)cc(F)c1 (racemic) [Example 62, rac-3,5-Difluoro-N-[2-(1,2,3,4-tetrahydro-naphthalen-1-ylamino)-quinolin-5-yl]-benzenesulfonamide] | 60.7 nM |
| c1ccc2c(c1)CC(Nc1ccc3c(NCc4cccc5[nH]ccc45)cccc3n1)C2 [Example 88, N2-Indan-2-yl-N5-(1H-indol-4-ylmethyl)-quinoline-2,5-diamine] | 44.3 nM |
| Cc1cc(Nc2cccc3nc(N[C@@H]4CCc5ccccc54)ccc23)n(C)n1 [Example 76, N5-(2,5-Dimethyl-2H-pyrazol-3-yl)-N2-(R)-indan-1-yl-quinoline-2,5-diamine] | 33 nM |
| c1ccc2c(c1)CC[C@H]2Nc1ccc2c(NCc3cccc4[nH]ccc34)cccc2n1 [Example 56, N2-(R)-Indan-1-yl-N5-(1H-indol-4-ylmethyl)-quinoline-2,5-diamine] | 1.65 nM |
| Fc1ccc(CNCc2cccc3nc(N[C@@H]4CCc5ccccc54)ccc23)cc1 [Example 81, {5-[(4-Fluoro-benzylamino)-methyl]-quinolin-2-yl}-(R)-indan-1-yl-amine] | 151 nM |
| COc1cccc2c1C(Nc1ccc3c(NCc4c[nH]cn4)cccc3n1)CC2 (stereo not shown) [Example 58, N5-(1H-Imidazol-4-ylmethyl)-N2-(7-methoxy-indan-1-yl)-quinoline-2,5-diamine] | 2.36 nM |
